In paper PMC9695599, “N-Terminally Lipidated Sialorphin Analogs—Synthesis, Molecular Modeling, In Vitro Effect on Enkephalins Degradation by NEP and Treatment of Intestinal Inflammation in Mice” (International Journal of Molecular Sciences, 2022):
Residues, ends and D or L forms follow the SMILES beside them.

Tests used:
[1] = Stability of peptides in human plasma; assay type: in vitro ADME; settings: 37 °C, 200 µL peptide solution (1 mg/mL in PBS pH 7.42) + 50 µL human plasma, ethanol deproteinization, RP-HPLC peak area vs 0 h, at least triplicate; for Stability in human plasma relative to heterodimer of sialorphin and spinorphin, after 4 h: 4 h incubation; for Level of remaining peptide in human plasma relative to heterodimer of sialorphin and spinorphin, after 24 h: 24 h incubation
Protocol: Compounds VII and VIII were the strongest inhibitors of NEP in vitro and were thus included in stability assays. Peptides were incubated in the human plasma at 37 °C, and their degradation was analyzed by RP HPLC. The stability of peptides VII–VIII was compared to that of a heterodimer of sialorphin and spinorphin and not sialorphin alone. In previously described stability assays of sialorphin alone, the 48% TFA solution was used to precipitate proteins before HPLC analysis. In the case of the peptides VII and VIII, we had to use ethanol instead of the TFA solution. This change was required by the fact that in the latter solution, an emergence of a degradation product that was characterized by identical retention time on HPLC as that of peptides VII and VIII occurred. Consequently, a different reference was used (heterodimer of sialorphin and spinorphin instead of sialorphin).
Plasma-stability assays were performed by applying procedure described by Sobocińska et al.. Each peptide solution was prepared by dissolving 1 mg of a peptide in 1 mL of PBS buffer (pH 7.42). The samples containing the peptide (200 µL) and freshly […] plasma (50 µL) were incubated at 37 °C. The samples were analyzed after 0, 2, 4, and 24 h. At each time interval 40 μL of the mixture was taken and deproteinized by addition of a ethanol (120 µL). The aliquots were centrifuged at 14,500 rpm for 5 min. The supernatants were filtered over Millipore Millex-GV syringe filters (Merck Life Science, Poznan, Poland) and analyzed with RP-HPLC on a Phenomenex Gemini-NX C18 5 µm column (4.6 mm × 150 mm) using the solvent system of 0.1% TFA in water (A) and 0.1% TFA in acetonitrile (B) and linear gradients of 20–80% (B) over 20 min, at a flow rate of 1.5 mL/min. To assess the stability at each time interval, the area of the peptide peak from the chromatogram was calculated and expressed as the percentage of the area of the peak recorded just after mixing a peptide with plasma (0-hour). The assay was performed at least in triplicate for each peptide.

[2] = target: neutral endopeptidase (NEP) (Homo sapiens, UniProt P08473); test: Degradation of Met-enkephalin by NEP alone and in the presence of inhibitors; settings: for 1000 × k, degradation rate of Met-enkephalin incubated with NEP in the presence of inhibitor / t1/2, half-life of Met-enkephalin incubated with NEP in the presence of inhibitor: Met-enkephalin 0.0413 mM, inhibitor 0.156 mM, NEP 5.687 nM, Tris–HCl 50 mM pH 7.4, 37 °C, 0, 30, 60, 90, 120 min, RP-HPLC, mean ± SEM, triplicates
Protocol: Determination of Met-enkephalin degradation rates was performed, as described previously. Purified enzyme NEP was purchased from Merck (Warsaw, Poland). Solutions of Met-enkephalin, NEP, and inhibitors were prepared by dissolving them in a Tris–HCl buffer (50 mM, pH 7.4). In investigated samples, the concentrations of Met-enkephalin, inhibitors, and NEP were, respectively, 0.0413 mM, 0.156 mM, and 5.687 nM. The samples consisting of NEP, Met-enkephalin, and the inhibitor were incubated over 0, 30, 60, 90, and 120 min at 37 °C in a final volume of 300 μL. The reaction was stopped with a 1 M aqueous HCl solution. In the next steps, the samples were centrifuged and the supernatants were filtered and analyzed by RP-HPLC. All measurements were performed in triplicates.

[3] = test system: DSS-induced colitis in mice; test: DSS-induced mouse model of colitis; assay type: in vivo, mouse (male BALB/C); settings: for Effect on microscopic damage score / colon architecture (in words): DSS-induced colitis, peptide 1 mg/kg i.p. twice daily day 3-6, hematoxylin-eosin stained distal colon sections, day 7
Protocol: Male BALB/C mice obtained from University of Lodz, Poland, weighing 22–25 g (6–8 weeks of age), were used. The mice were kept at a constant temperature (22–23 °C) and maintained under a 12 h light/dark cycle with constant access to laboratory chow and tap water. All animal protocols were approved by the Medical University of Lodz Animal Care Committee (Protocol 2/ŁB 123/2019 and 17/ŁB 132/2019) and complied with Directive 2010/63/EU of the European Parliament and of the Council of 22 September 2010. All efforts were made to minimize animal suffering and to reduce the number of animals used.
Colonic inflammation was induced as described before. From day 0 to day 5, mice received DSS: 4% w/v and molecular weight 40,000 (PanReac AppliChem, Darmstadt, Germany) in drinking water. On days 6 and 7, the DSS solution was replaced with tap water. Control animals were given drinking water throughout the whole experiment. Animal body weight was monitored daily. Mice were sacrificed by cervical dislocation on day 7, and colonic damage was evaluated.
Treatment was administered intraperitoneally (i.p.) twice daily from day 3 to day 6 after colitis induction, 100 µL/mouse. Peptides were administered at the dose of 1 mg/kg bw. Control and DSS groups received vehicle alone (100 µL/mouse, i.p.).
On day 7 of the experiment, mice were euthanized. For total macroscopic damage score evaluation, the colon was removed immediately after cervical dislocation and weighed with fecal content. Next, the colon was opened longitudinally, and the feces were removed.
Total macroscopic damage score was calculated based on the stool consistency (0—normal, well-shaped fecal pellets; 3—diarrhea), colon epithelial damage (0–3), and colon length and weight scores, calculated as a loss of each parameter relative to the control group (0 points, ≤5% weight/length loss; 1 point, 5–14% weight/length loss; 2 points, 15–24% weight/length loss; 3 points, 25–35% weight/length loss; and 4 points, ≥35% weight/length loss). […] The presence (score = 1) or absence (score = 0) of fecal blood was also recorded. […]

neutral endopeptidase (NEP), sequence (P08473 whole entry, species assumed): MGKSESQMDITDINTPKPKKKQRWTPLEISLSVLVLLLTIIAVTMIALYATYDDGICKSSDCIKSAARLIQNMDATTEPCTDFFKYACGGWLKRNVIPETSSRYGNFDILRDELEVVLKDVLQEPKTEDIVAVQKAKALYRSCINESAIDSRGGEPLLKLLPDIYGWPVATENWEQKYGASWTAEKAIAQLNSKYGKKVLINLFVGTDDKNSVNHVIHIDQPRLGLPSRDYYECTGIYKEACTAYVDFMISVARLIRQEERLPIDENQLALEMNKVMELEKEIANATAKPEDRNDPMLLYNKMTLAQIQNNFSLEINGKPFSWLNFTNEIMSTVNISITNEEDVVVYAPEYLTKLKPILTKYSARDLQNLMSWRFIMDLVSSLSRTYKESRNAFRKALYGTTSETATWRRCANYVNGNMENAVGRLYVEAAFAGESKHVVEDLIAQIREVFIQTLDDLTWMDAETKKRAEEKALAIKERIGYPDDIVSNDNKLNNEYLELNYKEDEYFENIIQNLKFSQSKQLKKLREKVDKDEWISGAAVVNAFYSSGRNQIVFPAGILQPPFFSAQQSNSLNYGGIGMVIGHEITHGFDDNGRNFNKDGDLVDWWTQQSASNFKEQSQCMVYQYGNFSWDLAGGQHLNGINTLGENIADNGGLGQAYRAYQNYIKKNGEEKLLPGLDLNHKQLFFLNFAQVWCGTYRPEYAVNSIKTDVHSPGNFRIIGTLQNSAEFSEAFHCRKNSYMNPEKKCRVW

SMILES | Stability in human plasma relative to heterodimer of sialorphin and spinorphin, after 4 h [1] [times] | Level of remaining peptide in human plasma relative to heterodimer of sialorphin and spinorphin, after 24 h [1] [times] | 1000 × k, degradation rate of Met-enkephalin incubated with NEP in the presence of inhibitor [2] | t1/2, half-life of Met-enkephalin incubated with NEP in the presence of inhibitor [2] [min] | Total macroscopic damage score ([3]; DSS 4% w/v in drinking water day 0-5, peptide 1 mg/kg i.p. twice daily day 3-6, evaluated day 7, mean ± SEM, n = 5–10, DSS-only 11.20 ± 0.60, control 0.55 ± 0.18) | Effect on microscopic damage score / colon architecture (in words) [3] | half-life at 0.0413 mM ([2]; isolated enzyme neprilysin, pH 7.4) [min]
CCCCCCCCCCCCCCCC(=O)N[C@@H](CCCCN)C(=O)N[C@@H](CCCCN)C(=O)N[C@@H](CCC(N)=O)C(=O)N[C@@H](Cc1c[nH]cn1)C(=O)N[C@@H](CC(N)=O)C(=O)N1CCC[C@H]1C(=O)N[C@@H](CCCNC(=N)N)C(=O)O [VII] (HELM PEPTIDE1{[CCCCCCCCCCCCCCCC(=O)[*:2]].K.K.Q.H.N.P.R}$$$$V2.0) | 1.4 | 1.3 | 3.46 ± 0.40 *** 1/min | 199 ± 2 | 10.20 ± 0.99 | significantly improved colon architecture | 
CCCCCCCCCCCCCC(=O)N[C@@H](CCCCN)C(=O)N[C@@H](CCCCN)C(=O)N[C@@H](CCC(N)=O)C(=O)N[C@@H](Cc1c[nH]cn1)C(=O)N[C@@H](CC(N)=O)C(=O)N1CCC[C@H]1C(=O)N[C@@H](CCCNC(=N)N)C(=O)O [VI] (HELM PEPTIDE1{[CCCCCCCCCCCCCC(=O)[*:2]].K.K.Q.H.N.P.R}$$$$V2.0) |  |  | 20.06 ± 1.34 ** 1/min | 35 ± 2 |  |  | 
CCCCCCCCCCCCCCCCCC(=O)N[C@@H](CCCCN)C(=O)N[C@@H](CCCCN)C(=O)N[C@@H](CCC(N)=O)C(=O)N[C@@H](Cc1c[nH]cn1)C(=O)N[C@@H](CC(N)=O)C(=O)N1CCC[C@H]1C(=O)N[C@@H](CCCNC(=N)N)C(=O)O [VIII] (HELM PEPTIDE1{[CCCCCCCCCCCCCCCCCC(=O)[*:2]].K.K.Q.H.N.P.R}$$$$V2.0) | 1.4 | 5.5 | 0.89 ± 0.10 *** 1/min | 724 ± 43 |  | less pronounced | 
CCCCCCCCCCCC(=O)N[C@@H](CCCCN)C(=O)N[C@@H](CCCCN)C(=O)N[C@@H](CCC(N)=O)C(=O)N[C@@H](Cc1c[nH]cn1)C(=O)N[C@@H](CC(N)=O)C(=O)N1CCC[C@H]1C(=O)N[C@@H](CCCNC(=N)N)C(=O)O [V] (HELM PEPTIDE1{[CCCCCCCCCCCC(=O)[*:2]].K.K.Q.H.N.P.R}$$$$V2.0) |  |  | 23.20 ± 0.89 min⁻¹ | 30 ± 1 |  |  | 
CSCC[C@H](NC(=O)[C@H](Cc1ccccc1)NC(=O)CNC(=O)CNC(=O)[C@@H](N)Cc1ccc(O)cc1)C(=O)O [Met-Enkephalin, Met-enkephalin, reference compound] |  |  |  |  |  |  | 27 ± 1
